Data from PubChem BioAssay AID248 (DTP/NCI, 2004).
Toxic doses and inconclusive results are not listed. Cut-off read from the data, not from the text of the source: active = T/C of 150% or more; inactive = T/C below 125%.

Tested on: L1210 leukemia ip in BDF1 mice, survival T/C
Assay: NCI In Vivo Anticancer Drug Screen. Data for tumor model L1210 Leukemia (intraperitoneal) in B6D2F1 (BDF1) mice
Conditions: endpoint: mean survival time, higher = longer survival
How it was run: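 Survival endpoint. Drug-treated group vs vehicle group, expressed as T divided by C. Tumor passaged by transplantation.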

[1] = dose: 50.0 mg/kg/injection, schedule: Q04DX002 (ip), vehicle: Klucel (hydroxypropylcellulose) (HPC)
[2] = dose: 100.0 mg/kg/injection, schedule: Q04DX002 (ip), vehicle: Klucel (hydroxypropylcellulose) (HPC)
[3] = dose: 200.0 mg/kg/injection, schedule: Q04DX002 (ip), vehicle: Klucel (hydroxypropylcellulose) (HPC)
[4] = dose: 100.0 mg/kg/injection, schedule: Q01DX001 (ip), vehicle: carboxymethylcellulose (CMC)
[5] = dose: 200.0 mg/kg/injection, schedule: Q01DX001 (ip), vehicle: carboxymethylcellulose (CMC)
[6] = dose: 400.0 mg/kg/injection, schedule: Q01DX001 (ip), vehicle: carboxymethylcellulose (CMC)

Measured: T/C

CCN1CCN(CC)C1=S
inactive: [1] 114 % of control | [2] 90 % of control | [3] 109 % of control

c1ccc2c(c1)ccc1nc3ccc4ccccc4c3cc12
inactive: dose: 5.0 mg/kg/injection, schedule: Q01DX001 (ip), vehicle: saline 86 % of control | dose: 20.0 mg/kg/injection, schedule: Q01DX001 (ip), vehicle: saline 97 % of control | dose: 40.0 mg/kg/injection, schedule: Q01DX001 (ip), vehicle: saline 95 % of control | dose: 80.0 mg/kg/injection, schedule: Q01DX001 (ip), vehicle: saline 97 % of control

CC(=O)Nc1cncc2ccccc12
inactive: dose: 100.0 mg/kg/injection, schedule: Q01DX009 (ip), vehicle: other 104 % of control | dose: 100.0 mg/kg/injection, schedule: Q04DX002 (ip), vehicle: other 97 % of control | dose: 200.0 mg/kg/injection, schedule: Q01DX009 (ip), vehicle: other 101 % of control | dose: 200.0 mg/kg/injection, schedule: Q04DX002 (ip), vehicle: other 105 % of control | dose: 400.0 mg/kg/injection, schedule: Q01DX009 (ip), vehicle: other 106 % of control | dose: 400.0 mg/kg/injection, schedule: Q04DX002 (ip), vehicle: other 105 % of control

Nc1nc(N)c(N=Nc2c(Br)cc(S(N)(=O)=O)cc2Br)c(N)n1
inactive: [4] 94 % of control | [5] 94 % of control | [6] 100 % of control

Oc1ccccc1/C=N\N=C\c1ccccc1O
inactive: [1] 93 % of control | dose: 100.0 mg/kg/injection, schedule: Q01DX001 (ip), vehicle: other 97 % of control | [2] 101 % of control | dose: 200.0 mg/kg/injection, schedule: Q01DX001 (ip), vehicle: other 103 % of control | [3] 112 % of control | dose: 400.0 mg/kg/injection, schedule: Q01DX001 (ip), vehicle: other 94 % of control

O=C1c2ccccc2C(=O)N1OCCCBr
inactive: dose: 50.0 mg/kg/injection, schedule: Q01DX001 (ip), vehicle: saline 96 % of control | dose: 100.0 mg/kg/injection, schedule: Q01DX001 (ip), vehicle: saline 102 % of control | dose: 200.0 mg/kg/injection, schedule: Q01DX001 (ip), vehicle: saline 102 % of control | dose: 400.0 mg/kg/injection, schedule: Q01DX001 (ip), vehicle: saline 102 % of control

Nc1nc(N)c(CCCOc2ccc(NC(=O)c3cc(S(=O)(=O)F)ccc3Cl)cc2)c(N)n1
inactive: dose: 100.0 mg/kg/injection, schedule: Q01DX001 (ip), vehicle: Klucel (hydroxypropylcellulose) (HPC) 99 % of control | dose: 200.0 mg/kg/injection, schedule: Q01DX001 (ip), vehicle: Klucel (hydroxypropylcellulose) (HPC) 99 % of control | dose: 400.0 mg/kg/injection, schedule: Q01DX001 (ip), vehicle: Klucel (hydroxypropylcellulose) (HPC) 105 % of control

O=C(c1ccccc1)c1ccc(Br)cc1O
inactive: [4] 105 % of control | [5] 98 % of control | [6] 100 % of control

Cc1ccc(S(=O)(=O)NC(=O)NCCC(C)C)cc1
inactive: dose: 100.0 mg/kg/injection, schedule: Q04DX003 (ip), vehicle: saline with Tween-80 102 % of control | dose: 200.0 mg/kg/injection, schedule: Q04DX003 (ip), vehicle: saline with Tween-80 100 % of control | dose: 400.0 mg/kg/injection, schedule: Q04DX003 (ip), vehicle: saline with Tween-80 96 % of control

COC(=O)C(Br)C(OC)c1ccccc1 (stereo not given)
inactive: dose: 100.0 mg/kg/injection, schedule: Q01DX009 (ip), vehicle: Klucel (hydroxypropylcellulose) (HPC) 96 % of control | dose: 200.0 mg/kg/injection, schedule: Q01DX009 (ip), vehicle: Klucel (hydroxypropylcellulose) (HPC) 96 % of control | dose: 400.0 mg/kg/injection, schedule: Q01DX009 (ip), vehicle: Klucel (hydroxypropylcellulose) (HPC) 98 % of control

CCCCCC(Oc1ccc(Cl)cc1C)C(=O)O (stereo not given)
inactive: [2] 107 % of control | [3] 107 % of control
